These results are taken from article PMC8766756, “Insights on Cancer Cell Inhibition, Subcellular Activities, and Kinase Profile of Phenylacetamides Pending 1H-Imidazol-5-One Variants” (Frontiers in Pharmacology, 2022).

The structures appear in SMILES notation.

The assay has as its target T1, Lmr1 (Q6ZMQ8) (Homo sapiens, UniProt Q6ZMQ8).
T1 construct: purchased PamGene (PamChip PTK array, Upstream Kinase Analysis)
T1 sequence (Q6ZMQ8 1-1374): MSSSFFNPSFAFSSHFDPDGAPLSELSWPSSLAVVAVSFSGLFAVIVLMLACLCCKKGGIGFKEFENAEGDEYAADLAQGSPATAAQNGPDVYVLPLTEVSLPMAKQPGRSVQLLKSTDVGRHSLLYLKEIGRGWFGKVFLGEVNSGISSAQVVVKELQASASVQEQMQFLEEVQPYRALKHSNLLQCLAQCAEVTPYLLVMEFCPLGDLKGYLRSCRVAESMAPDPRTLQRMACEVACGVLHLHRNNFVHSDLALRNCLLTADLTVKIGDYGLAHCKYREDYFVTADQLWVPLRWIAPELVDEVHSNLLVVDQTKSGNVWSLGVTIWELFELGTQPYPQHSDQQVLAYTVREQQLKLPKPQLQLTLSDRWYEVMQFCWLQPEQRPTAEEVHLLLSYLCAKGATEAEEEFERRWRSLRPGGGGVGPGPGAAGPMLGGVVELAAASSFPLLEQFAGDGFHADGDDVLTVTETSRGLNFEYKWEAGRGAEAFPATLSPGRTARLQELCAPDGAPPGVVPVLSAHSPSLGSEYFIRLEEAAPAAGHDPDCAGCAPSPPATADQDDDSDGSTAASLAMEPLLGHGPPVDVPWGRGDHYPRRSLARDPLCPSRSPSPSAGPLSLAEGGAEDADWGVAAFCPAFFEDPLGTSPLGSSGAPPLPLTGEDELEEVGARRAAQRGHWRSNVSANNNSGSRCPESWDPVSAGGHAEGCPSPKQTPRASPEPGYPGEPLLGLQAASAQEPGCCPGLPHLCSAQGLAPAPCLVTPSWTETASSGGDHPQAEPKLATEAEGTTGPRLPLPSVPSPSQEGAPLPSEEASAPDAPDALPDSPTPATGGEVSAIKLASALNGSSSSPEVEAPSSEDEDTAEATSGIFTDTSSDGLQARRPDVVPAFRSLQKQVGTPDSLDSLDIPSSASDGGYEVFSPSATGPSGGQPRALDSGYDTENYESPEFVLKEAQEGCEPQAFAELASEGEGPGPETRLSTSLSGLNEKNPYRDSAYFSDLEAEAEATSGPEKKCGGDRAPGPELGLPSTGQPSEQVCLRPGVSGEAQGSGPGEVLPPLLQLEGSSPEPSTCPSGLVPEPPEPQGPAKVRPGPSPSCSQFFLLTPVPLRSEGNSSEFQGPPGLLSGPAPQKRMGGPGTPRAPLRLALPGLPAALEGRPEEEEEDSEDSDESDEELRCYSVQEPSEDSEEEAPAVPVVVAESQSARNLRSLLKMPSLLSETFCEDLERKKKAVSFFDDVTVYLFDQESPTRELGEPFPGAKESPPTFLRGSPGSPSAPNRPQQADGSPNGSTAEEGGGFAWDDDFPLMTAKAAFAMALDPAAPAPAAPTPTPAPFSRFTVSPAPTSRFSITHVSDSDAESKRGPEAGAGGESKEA
Briefly: PamChip tyrosine kinase microarray. As to conditions: 0.1 µM, HL60 lysate. Type of assay: biochemical. A digest of the protocol:
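HL60 (AML) cell lysate was spiked with compound at 0.001, 0.01, 0.1, 1, 10 and 50 µM, or 2% v/v DMSO as control, then profiled in technical replicates on a tyrosine kinase peptide array of 196 phosphosites. Kinase activity was inferred from peptide-set changes using an upstream kinase tool.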

For `COc1ccc(/C=C2\N=C(C)N(c3ccc(CC(=O)NCc4ccccc4)cc3)C2=O)cc1` [Compound 4c, (Z)-N-Benzyl-2-(4-(4-(4-methoxybenzylidene)-2-methyl-5-oxo-4,5-dihydro-1H-imidazol-1-yl)phenyl)acetamide], the “Mean Final score (Kinase score)” value worked out at 2.52, the “Mean Kinase Statistic” value is reported as -1.33, the “Mean Significance Score” value was 1.989 and the “Mean Specificity Score” value is 0.4793.
